Reference: publication PMC9482650, “Quantitative fragmentomics allow affinity mapping of interactomes” (Nature Communications, 2022)
Ends that are not written are not given here.

Assays:
Test in all cases: Holdup assay
Type in all cases: binding
MPDZ_10 PDZ = MPDZ_10 PDZ (Homo sapiens, UniProt O75970)
Inadl_5 PDZ = Inadl_5 PDZ (Homo sapiens, UniProt Q8NI35)
LNX2_2 PDZ = LNX2_2 PDZ (Homo sapiens, UniProt Q8N448)
GOPC PDZ = GOPC PDZ (Homo sapiens, UniProt Q9HD26)
Inadl_8 PDZ = Inadl_8 PDZ (Homo sapiens, UniProt Q8NI35)
Sequence of Inadl_8 PDZ (Q8NI35 1437-1520 limits assumed): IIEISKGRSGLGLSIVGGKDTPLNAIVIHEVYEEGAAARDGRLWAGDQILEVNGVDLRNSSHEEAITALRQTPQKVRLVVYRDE

RADIL PDZ = RADIL PDZ (Homo sapiens, UniProt Q96JH8)
Sequence of RADIL PDZ (Q96JH8 976-1061 limits assumed): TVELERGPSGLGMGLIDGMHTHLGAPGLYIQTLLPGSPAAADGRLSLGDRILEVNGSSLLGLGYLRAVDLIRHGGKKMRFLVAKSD

MAGI1_4 PDZ = MAGI1_4 PDZ (Homo sapiens, UniProt Q96QZ7)
Sequence of MAGI1_4 PDZ (Q96QZ7 813-895 limits assumed): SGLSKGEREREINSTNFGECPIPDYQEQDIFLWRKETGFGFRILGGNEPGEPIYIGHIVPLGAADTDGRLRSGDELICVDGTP

MAGI1_3 PDZ = MAGI1_3 PDZ (Homo sapiens, UniProt Q96QZ7); conditions: sheet PPI_convert; read-out: affinity to PDZ MAGI1_3 (converted)
Sequence of MAGI1_3 PDZ (Q96QZ7 643-721 limits assumed): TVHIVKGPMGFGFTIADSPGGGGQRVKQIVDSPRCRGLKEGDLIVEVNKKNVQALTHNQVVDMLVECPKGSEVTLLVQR

MAGI3_4 PDZ = MAGI3_4 PDZ (Homo sapiens, UniProt Q5TCQ9); conditions: sheet PPI_convert; read-out: affinity to PDZ MAGI3_4 (converted)
Sequence of MAGI3_4 PDZ (Q5TCQ9 726-808 limits assumed): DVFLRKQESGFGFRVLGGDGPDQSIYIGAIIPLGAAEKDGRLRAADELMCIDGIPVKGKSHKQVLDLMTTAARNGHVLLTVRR

MAGI3_6 PDZ = MAGI3_6 PDZ (Homo sapiens, UniProt Q5TCQ9); conditions: sheet PPI_convert; read-out: affinity to PDZ MAGI3_6 (converted)
Sequence of MAGI3_6 PDZ (Q5TCQ9 1021-1103 limits assumed): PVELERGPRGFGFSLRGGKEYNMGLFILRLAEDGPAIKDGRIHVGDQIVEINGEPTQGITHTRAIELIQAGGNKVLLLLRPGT

MAGI1_6 PDZ = MAGI1_6 PDZ (Homo sapiens, UniProt Q96QZ7); conditions: sheet PPI_convert; read-out: affinity to PDZ MAGI1_6 (converted)
Sequence of MAGI1_6 PDZ (Q96QZ7 1124-1206 limits assumed): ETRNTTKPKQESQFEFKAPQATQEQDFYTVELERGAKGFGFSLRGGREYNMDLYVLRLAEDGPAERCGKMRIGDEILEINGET

PDLIM4 PDZ = PDLIM4 PDZ (Homo sapiens, UniProt P50479); conditions: sheet PPI_convert; read-out: affinity to PDZ PDLIM4 (converted)
Sequence of PDLIM4 PDZ (P50479 1-84 limits assumed): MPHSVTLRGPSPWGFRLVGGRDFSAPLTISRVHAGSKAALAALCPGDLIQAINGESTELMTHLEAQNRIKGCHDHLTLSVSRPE
Description: Supplement 41467_2022_33018_MOESM4_ESM.xlsx, sheet "PPI_convert" | column: PDLIM4

MPDZ_13 PDZ = MPDZ_13 PDZ (Homo sapiens, UniProt O75970); conditions: sheet PPI_convert; read-out: affinity to PDZ MPDZ_13 (converted)
Sequence of MPDZ_13 PDZ (O75970 1987-2070 limits assumed): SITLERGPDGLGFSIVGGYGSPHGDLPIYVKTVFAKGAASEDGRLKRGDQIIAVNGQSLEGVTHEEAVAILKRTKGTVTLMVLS

PDZD2_5 PDZ = PDZD2_5 PDZ (Homo sapiens, UniProt O15018); conditions: sheet PPI_convert; read-out: affinity to PDZ PDZD2_5 (converted)
Sequence of PDZD2_5 PDZ (O15018 2622-2706 limits assumed): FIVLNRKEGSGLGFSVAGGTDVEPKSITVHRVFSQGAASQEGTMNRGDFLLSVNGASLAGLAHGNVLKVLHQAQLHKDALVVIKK

MAGI2_6 PDZ = MAGI2_6 PDZ (Homo sapiens, UniProt Q86UL8); conditions: composite holdup affinity; 0.00=below quantification threshold; read-out: COMP pKd (converted)
Sequence of MAGI2_6 PDZ (Q86UL8 1147-1229 limits assumed): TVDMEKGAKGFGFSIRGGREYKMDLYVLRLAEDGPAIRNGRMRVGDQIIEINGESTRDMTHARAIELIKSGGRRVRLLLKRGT

MAGI1_5 PDZ = MAGI1_5 PDZ (Homo sapiens, UniProt Q96QZ7); conditions: sheet PPI_convert; read-out: affinity to PDZ MAGI1_5 (converted)
Sequence of MAGI1_5 PDZ (Q96QZ7 970-1066 limits assumed): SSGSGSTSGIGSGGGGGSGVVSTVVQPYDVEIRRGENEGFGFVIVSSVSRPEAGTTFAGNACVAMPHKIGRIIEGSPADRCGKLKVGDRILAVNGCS

MPDZ_4 PDZ = MPDZ_4 PDZ (Homo sapiens, UniProt O75970); conditions: sheet PPI_convert; read-out: affinity to PDZ MPDZ_4 (converted)
Sequence of MPDZ_4 PDZ (O75970 553-634 limits assumed): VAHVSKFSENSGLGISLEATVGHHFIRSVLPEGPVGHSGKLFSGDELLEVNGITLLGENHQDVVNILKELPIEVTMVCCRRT
Description: Supplement 41467_2022_33018_MOESM4_ESM.xlsx, sheet "PPI_convert" | column: MPDZ_4

PARD3B_3 PDZ = PARD3B_3 PDZ (Homo sapiens, UniProt Q8TEW8); conditions: sheet PPI_convert; read-out: affinity to PDZ PARD3B_3 (converted)
Sequence of PARD3B_3 PDZ (Q8TEW8 498-585 limits assumed): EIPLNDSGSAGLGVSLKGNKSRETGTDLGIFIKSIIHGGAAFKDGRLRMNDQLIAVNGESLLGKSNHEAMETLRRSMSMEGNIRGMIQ

PDZD4 PDZ = PDZD4 PDZ (Homo sapiens, UniProt Q76G19); conditions: sheet PPI_convert; read-out: affinity to PDZ PDZD4 (converted)
Sequence of PDZD4 PDZ (Q76G19 130-214 limits assumed): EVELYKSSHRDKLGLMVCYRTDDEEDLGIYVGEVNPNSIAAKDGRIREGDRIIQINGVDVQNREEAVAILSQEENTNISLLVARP
Description: Supplement 41467_2022_33018_MOESM4_ESM.xlsx, sheet "PPI_convert" | column: PDZD4

PDZRN3_2 PDZ = PDZRN3_2 PDZ (Homo sapiens, UniProt Q9UPQ7); conditions: sheet PPI_convert; read-out: affinity to PDZ PDZRN3_2 (converted)
Sequence of PDZRN3_2 PDZ (Q9UPQ7 419-503 limits assumed): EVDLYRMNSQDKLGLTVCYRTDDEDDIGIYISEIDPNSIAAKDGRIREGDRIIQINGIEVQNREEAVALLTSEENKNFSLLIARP

MAGIX PDZ = MAGIX PDZ (Homo sapiens, UniProt Q9H6Y5); conditions: sheet PPI_convert; read-out: affinity to PDZ MAGIX (converted)
Sequence of MAGIX PDZ (Q9H6Y5 125-209): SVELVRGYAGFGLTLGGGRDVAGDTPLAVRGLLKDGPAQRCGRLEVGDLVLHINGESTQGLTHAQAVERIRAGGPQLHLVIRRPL
Description: Supplement 41467_2022_33018_MOESM4_ESM.xlsx, sheet "PPI_convert" | column: MAGIX

NHERF2_1 PDZ = NHERF2_1 PDZ (Homo sapiens, UniProt Q15599); conditions: sheet PPI_convert; read-out: affinity to PDZ NHERF2_1 (converted)
Sequence of NHERF2_1 PDZ (Q15599 11-90 limits assumed): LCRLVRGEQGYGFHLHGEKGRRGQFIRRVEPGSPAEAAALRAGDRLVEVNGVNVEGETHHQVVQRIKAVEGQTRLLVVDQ

MLLT4 PDZ = MLLT4 PDZ (Homo sapiens, UniProt P55196); conditions: sheet PPI_convert; read-out: affinity to PDZ MLLT4 (converted)
Sequence of MLLT4 PDZ (P55196 1007-1093 limits assumed): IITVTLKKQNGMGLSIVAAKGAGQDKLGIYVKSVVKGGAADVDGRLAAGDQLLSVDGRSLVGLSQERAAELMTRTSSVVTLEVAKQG
Description: Supplement 41467_2022_33018_MOESM4_ESM.xlsx, sheet "PPI_convert" | column: MLLT4

DLG5_4 PDZ = DLG5_4 PDZ (Homo sapiens, UniProt Q8TDM6); conditions: sheet PPI_convert; read-out: affinity to PDZ DLG5_4 (converted)
Sequence of DLG5_4 PDZ (Q8TDM6 1501-1582 limits assumed): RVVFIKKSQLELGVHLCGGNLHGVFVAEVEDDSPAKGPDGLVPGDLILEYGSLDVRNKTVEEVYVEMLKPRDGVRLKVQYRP

IL16_2 PDZ = IL16_2 PDZ (Homo sapiens, UniProt Q14005); conditions: sheet PPI_convert; read-out: affinity to PDZ IL16_2 (converted)
Sequence of IL16_2 PDZ (Q14005 355-440 limits assumed): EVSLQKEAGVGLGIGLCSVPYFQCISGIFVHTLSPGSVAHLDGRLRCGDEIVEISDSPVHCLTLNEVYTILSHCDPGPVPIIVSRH

Sequence of Inadl_5 PDZ (Q8NI35 686-772 limits assumed): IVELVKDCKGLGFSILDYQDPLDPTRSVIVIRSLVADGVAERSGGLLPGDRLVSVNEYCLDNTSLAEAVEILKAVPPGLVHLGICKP
Sequence of LNX2_2 PDZ (Q8N448 339-422 limits assumed): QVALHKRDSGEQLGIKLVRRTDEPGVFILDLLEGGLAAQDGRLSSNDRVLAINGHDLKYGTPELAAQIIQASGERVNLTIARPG
Sequence of MPDZ_10 PDZ (O75970 1629-1712 limits assumed): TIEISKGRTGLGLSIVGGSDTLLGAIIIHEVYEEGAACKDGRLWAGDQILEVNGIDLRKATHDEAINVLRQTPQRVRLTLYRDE

Compound: CC(C)C[C@H](NC(=O)[C@@H](N)CCCNC(=N)N)C(=O)N[C@@H](CCC(N)=O)C(=O)N[C@@H](CCCNC(=N)N)C(=O)N[C@@H](CCCNC(=N)N)C(=O)N[C@@H](CCCNC(=N)N)C(=O)N[C@@H](CCC(=O)O)C(=O)N[C@H](C(=O)N[C@@H](CCC(N)=O)C(=O)N[C@H](C(=O)O)C(C)C)[C@@H](C)O [HPV18-E6]
- Kd (MPDZ_10 PDZ): 275 µM
- Kd (Inadl_5 PDZ): 302 µM
- Kd (LNX2_2 PDZ): 676 µM
- Kd (GOPC PDZ): 661 µM
- Kd (Inadl_8 PDZ): 479 µM
- Kd (RADIL PDZ): 525 µM
- Kd (MAGI1_4 PDZ): 52.5 µM

Compound: SKPTRRETEV [HPV35-E6]
- Kd (MAGI1_3 PDZ): 81.3 µM
- Kd (MAGI3_4 PDZ): 174 µM
- Kd (MAGI3_6 PDZ): 155 µM
- Kd (MAGI1_6 PDZ): 219 µM
- Kd (PDLIM4 PDZ): 69.2 µM
- Kd (MPDZ_13 PDZ): 170 µM
- Kd (PDZD2_5 PDZ): 170 µM
- Kd (MAGI2_6 PDZ): 324 µM
- Kd (MAGI1_5 PDZ): 37.2 µM
- Kd (MPDZ_4 PDZ): 282 µM
- Kd (PARD3B_3 PDZ): 186 µM
- Kd (PDZD4 PDZ): 282 µM
- Kd (PDZRN3_2 PDZ): 269 µM
- Kd (MAGIX PDZ): 275 µM
- Kd (NHERF2_1 PDZ): 170 µM
- Kd (MLLT4 PDZ): 162 µM
- Kd (DLG5_4 PDZ): 219 µM
- Kd (IL16_2 PDZ): 269 µM
